The structures appear in SMILES notation. In brackets after ≈: the same amount, converted by molar mass.

The first series has as its system Mycobacterium tuberculosis H37Rv (ATCC 27294). Put plainly: microbe, parasite or virus in culture. Type of series: cell-based.
`[H]/N=C(/N)N[C@H]1[C@H](O)[C@@H](O)[C@H](O[C@@H]2O[C@@H](C)[C@](O)(C=O)[C@H]2O[C@@H]2O[C@@H](CO)[C@H](O)[C@@H](O)[C@@H]2NC)[C@@H](N/C(N)=N\[H])[C@@H]1O` [streptomycin] came in with an MIC of 0.25 µg/mL (≈ 0.43 µM).

Tested on in a further series: not given
Assay: not given
Take `O=C(CO[C@@H]1COc2nc([N+](=O)[O-])cn2C1)Nc1ccc(OC(F)(F)F)cc1`: the melting point was in the range of 157 to 158 °C.

Turning to `O=[N+]([O-])c1cn2c(n1)OCC(OCc1ccc(OCc3ccc(F)cc3)cc1)C2` (stereo not drawn), the melting point was in the range of 150.2 to 150.9 °C. The compound `O=C(CO[C@@H]1COc2nc([N+](=O)[O-])cn2C1)N1CCN(c2ccc(C(F)(F)F)cn2)CC1` came in with a melting point of 189 to 190 °C. On the same count and under the same terms, the result for `O=C(CO[C@@H]1COc2nc([N+](=O)[O-])cn2C1)Nc1nc(-c2ccc(OC(F)(F)F)cc2)cs1` reads 120 to 121 °C; that for `O=[N+]([O-])c1cn2c(n1)OC[C@@H](OCc1nc3ccc(OC(F)(F)F)cc3[nH]1)C2`, 99 to 100 °C; that for `O=C(CO[C@@H]1COc2nc([N+](=O)[O-])cn2C1)Nc1nc2ccc(OC(F)(F)F)cc2s1` (stereo in doubt), 89 to 90 °C.

`O=[N+]([O-])c1cn2c(n1)OC[C@@H](OCc1csc(-c3ccc(OC(F)(F)F)cc3)n1)C2` displayed a melting point of 140 to 141 °C. `O=[N+]([O-])c1cn2c(n1)OC[C@@H](OCc1ccc(-c3nc4cc(OC(F)(F)F)ccc4[nH]3)cc1)C2` showed a melting point of 98 to 99 °C. Compound `O=[N+]([O-])c1cn2c(n1)OC[C@@H](OCc1nc3ccc(C(F)(F)F)cc3[nH]1)C2` yielded a melting point of 120 to 121 °C.

Take `O=C(CO[C@@H]1COc2nc([N+](=O)[O-])cn2C1)N1CCN(c2ccc(OC(F)(F)F)cc2)CC1`: the melting point is 77 to 79 °C. For the compound `O=[N+]([O-])c1cn2c(n1)OCC(OCc1ccc(-c3nc4cc(OC(F)(F)F)ccc4o3)cc1)C2` (stereo not drawn), the melting point was 187 to 188 °C. Compound `O=C(CO[C@@H]1COc2nc([N+](=O)[O-])cn2C1)N1CCC(c2nc3cc(OC(F)(F)F)ccc3[nH]2)CC1` yielded a melting point of 131 to 132 °C.

Regarding `O=C(CO[C@@H]1COc2nc([N+](=O)[O-])cn2C1)NCc1ccc(OC(F)(F)F)cc1`, the melting point is 110 to 111 °C. `O=C(CO[C@@H]1COc2nc([N+](=O)[O-])cn2C1)N1CCN(c2ccc(F)cc2)CC1` showed a melting point of 73 to 74 °C.

The record behind these values is patent US20080275035A1 (priority 2005, published 2008).
